From patent US9884863B2, “STAT3 inhibitor” (Board of Regents, The University of Texas System, priority 2013, dated 2018)
Like-named read-outs stand apart in the source and are kept apart here.

Tests used:
MCF-7 = assay: MTS cell proliferation assay, MCF-7; assay type: cell-based, human
Procedure: Cancer cells (breast cancer cell lines MCF-7, MDA-MB-361, SKBR3 and MDA-MB-231, pancreatic cancer cell lines AsPC-1. […] Proliferation was measured by treating cells with the 3-(4,5-dimethylthiazol-2-yl)-5-(3-carboxymethoxyphenyl)-2-(4-sulfophenyl)-2H-tetrazolium) (MTS) in a CellTiter 96t AQueous Non-Radioactive Cell Proliferation Assay kit from Promega, Madison, Wis., USA). Absorbance of all wells was determined by measuring OD at 550 nm after 1 hr incubation at 37° C. on a 96-well iMark™ Microplate Absorbance Reader (BioRad, Hercules, Calif.). Each individual compound was tested in quadruplicate wells for each concentration, and the results were reported as mean absorption±s.e.
In Vitro Determination of Effects of Synthesized Compounds on Cancer Cell Proliferation. Cancer cells (breast cancer cell lines MCF-7 and MDA-MB-231, pancreatic cancer cell lines AsPC-1 and Panc-1) were […], 0.01, 0.1, 1, 5, 10, […] Proliferation was measured by treating cells with the 3-(4,5-dimethylthiazol-2-yl)-5-(3-carboxymethoxyphenyl)-2-(4-sulfophenyl)-2H-tetrazolium) (MTS) in a CellTiter 96t Aqueous Non-Radioactive Cell Proliferation Assay kit (Promega, Madison, Wis., USA). Absorbance of all wells was determined by measuring OD at 550 nm after 1 h incubation at 37° C. on a 96-well iMark™ Microplate Absorbance Reader (BioRad, Hercules, Calif.). Each individual compound was tested in quadruplicate wells for each concentration.

MDA-MB-231 = assay: MTS cell proliferation assay, MDA-MB-231; assay type: cell-based, human; details: Homo sapiens, read-out: IC50 MDA-MB-231 (Table 1)
Procedure: Cancer cells (breast cancer cell lines MCF-7, MDA-MB-361, SKBR3 and MDA-MB-231, pancreatic cancer cell lines AsPC-1. BxPC3 and Panc-1) were seeded in 96-well plates at a density of 1000-2000 cells/well and treated with DMSO, 0.01, 0.1, 1, 5, 10, and […] of STAT3 individual inhibitors for 72 hrs. Proliferation was measured by treating cells with the 3-(4,5-dimethylthiazol-2-yl)-5-(3-carboxymethoxyphenyl)-2-(4-sulfophenyl)-2H-tetrazolium) (MTS) in a CellTiter 96t AQueous Non-Radioactive Cell Proliferation Assay kit from Promega, Madison, Wis., USA). Absorbance of all wells was determined by measuring OD at 550 nm after 1 hr incubation at 37° C. on a 96-well iMark™ Microplate Absorbance Reader (BioRad, Hercules, Calif.).
In Vitro Determination of Effects of Synthesized Compounds on Cancer Cell Proliferation. Cancer cells (breast cancer cell lines MCF-7 and MDA-MB-231, pancreatic cancer cell lines AsPC-1 and Panc-1) were seeded in 96-well plates at a density of 2×10^3 cells/well and treated with DMSO, 0.01, 0.1, 1, 5, 10, and 100 μM of individual STAT3 inhibitors for 72 h. Proliferation was measured by treating cells with the 3-(4,5-dimethylthiazol-2-yl)-5-(3-carboxymethoxyphenyl)-2-(4-sulfophenyl)-2H-tetrazolium) (MTS) in a CellTiter 96t Aqueous Non-Radioactive Cell Proliferation Assay kit (Promega, Madison, Wis., USA). Absorbance of all wells was determined by measuring OD at 550 nm after 1 h incubation at 37° C. on a 96-well iMark™ Microplate Absorbance Reader (BioRad, Hercules, Calif.). Each individual compound was tested in quadruplicate wells for each concentration. […]

[1] = Homo sapiens, MCF7, 72 h; read-out: IC50 MCF-7 (Table 1)
[2] = MDA-MB-231, ER-negative breast cancer, 72 hrs, >10 = no effect
[3] = Homo sapiens, MCF7, 72 h, read-out: IC50 MCF-7 (Table 1)

Structure (SMILES) | melting point [°C] | IC50 (MCF-7; [1]) [µM] | IC50 (MDA-MB-231; [2]) [µM] | also measured
O=C(Nc1ccc2c(c1)S(=O)(=O)C=C2)c1c2ccccc2nc2ccccc12 | 237 to 238 | – | – | –
C[C@H](NC(=O)c1cc(Cl)ccc1O)c1ccccc1 [Compound 9, (S)-5-Chloro-2-hydroxy-N-(1-phenylethyl)benzamide] | 124 to 125 | – | – | –
O=C(Nc1nnc(-c2ccco2)o1)c1cc(Cl)ccc1O [Compound 13, 5-Chloro-N-(5-furan-2-yl-[1,3,4]oxadiazol-2-yl)-2-hydroxybenzamide] | 196 to 197 | – | – | –
O=C(Nc1ccc2c(c1)S(=O)(=O)C=C2)c1ccnc(Br)c1 [HJC-3-95, 2-Bromo-N-(1,1-dioxo-1H-1λ^6-benzo[b]thiophen-6-yl)-isonicotinamide] | – | 3.64 | > 10 | –
O=C(Nc1ccc([N+](=O)[O-])cc1Cl)c1cc(Cl)ccc1OCCF [HJC-3-98, 5-Chloro-N-(2-chloro-4-nitro-phenyl)-2-(2-fluoro-ethoxy)benzamide] | – | – | – | IC50 (MCF-7; [3]): > 10 µM; IC50 (MDA-MB-231; MDA-MB-231, 72 h): > 10 µM
O=C(Nc1ccc2c(c1)S(=O)(=O)C=C2)c1cc(Cl)ccc1OCCF [HJC-3-99, 5-Chloro-N-(1,1-dioxo-1H-1λ^6-benzo[b]thiophen-6-yl)-2-(2-fluoroethoxy)benzamide] | – | – | – | IC50 (MCF-7; [3]): 4 µM; IC50 (MDA-MB-231; MDA-MB-231, 72 h): 4.42 µM
N#C/C(=C\c1ccc(O)c(O)c1)C(=O)Nc1ccc2c(c1)S(=O)(=O)C=C2 [HJC-4-11, 2-Cyano-3-(3,4-dihydroxy-phenyl)-N-(1,1-dioxo-1H-1λ^6-benzo[b]thiophen-6-yl)-acrylamide] | – | – | – | IC50 (MCF-7; [3]): 4.27 µM; IC50 (MDA-MB-231; MDA-MB-231, 72 h): > 10 µM
O=C(Nc1ccc2c(c1)S(=O)(=O)C=C2)c1cc(Cl)ccc1OC1CCNCC1 [HJC-4-15, 5-Chloro-N-(1,1-dioxo-1H-1λ^6-benzo[b]thiophen-6-yl)-2-(piperidin-4-yloxy)benzamide] | – | 4.21 | 2.85 | –
CC(=O)N1CCC(Oc2ccc(Cl)cc2C(=O)Nc2ccc([N+](=O)[O-])cc2Cl)CC1 [HJC-4-22, 2-(1-Acetylpiperidin-4-yloxy)-5-chloro-N-(2-chloro-4-nitrophenyl)benzamide] | – | > 10 | 5.87 | –
Nc1ccc(NC(=O)c2cc(Cl)ccc2OC2CCNCC2)c(Cl)c1 [HJC-4-23, N-(4-Amino-2-chlorophenyl)-5-chloro-2-(piperidin-4-yloxy)benzamide] | – | – | – | IC50 (MCF-7; [3]): > 10 µM; IC50 (MDA-MB-231; MDA-MB-231, 72 h): > 10 µM
CS(=O)(=O)N1CCC(Oc2ccc(Cl)cc2C(=O)Nc2ccc([N+](=O)[O-])cc2Cl)CC1 [HJC-4-24, 5-Chloro-N-(2-chloro-4-nitrophenyl)-2-(1-methanesulfonylpiperidin-4-yloxy)benzamide] | – | > 10 | > 10 | –
CC(=O)NCCOc1ccc(Cl)cc1C(=O)Nc1ccc([N+](=O)[O-])cc1Cl [HJC-4-25, 2-(2-Acetylaminoethoxy)-5-chloro-N-(2-chloro-4-nitrophenyl)benzamide] | – | > 10 | > 10 | –
CS(=O)(=O)NCCOc1ccc(Cl)cc1C(=O)Nc1ccc([N+](=O)[O-])cc1Cl [HJC-4-26, 5-Chloro-N-(2-chloro-4-nitrophenyl)-2-(2-methanesulfonylaminoethoxy)benzamide] | – | > 10 | > 10 | –
CC(=O)N1CCN(CCOc2ccc(Cl)cc2C(=O)Nc2ccc([N+](=O)[O-])cc2Cl)CC1 [HJC-4-27, 2-[2-(4-Acetylpiperazin-1-yl)-ethoxy]-5-chloro-N-(2-chloro-4-nitrophenyl)benzamide] | – | > 10 | > 10 | –
NCCCCOc1ccc(Cl)cc1C(=O)Nc1ccc([N+](=O)[O-])cc1Cl [HJC-4-31, 2-(4-Aminobutoxy)-5-chloro-N-(2-chloro-4-nitrophenyl)benzamide] | – | 3.7 | 2.37 | inhibition on breast cancer cell proliferation (FIG. 1) (MCF-7; MCF-7, 48 hr, μM concentrations): significant inhibition
CC(=O)Nc1ccc(NC(=O)c2cc(Cl)ccc2OC2CCNCC2)c(Cl)c1 [HJC-4-32, N-(4-Acetylamino-2-chloro-phenyl)-5-chloro-2-(piperidin-4-yloxy)benzamide] | – | > 10 | > 10 | –

Structure (SMILES) | melting point [°C] | IC50 (MCF-7; [1]) [µM] | IC50 (MDA-MB-231; [2]) [µM] | also measured
CS(=O)(=O)N(c1ccc(NC(=O)c2cc(Cl)ccc2OC2CCNCC2)c(Cl)c1)S(C)(=O)=O [HJC-4-35-1] | – | > 10 | > 10 | –
CS(=O)(=O)Nc1ccc(NC(=O)c2cc(Cl)ccc2OC2CCNCC2)c(Cl)c1 [HJC-4-35-2] | – | > 10 | > 10 | –
Cc1cccc(/C=C(\C#N)C(=O)Nc2ccc3c(c2)S(=O)(=O)C=C3)n1 [HJC-5-88, 2-Cyano-N-(1,1-dioxo-1H-1λ^6-benzo[b]thiophen-6-yl)-3-(6-methyl-pyridin-2-yl)acrylamide] | 221 to 222 | – | – | –
N#C/C(=C\c1cccc(Cl)c1)C(=O)Nc1ccc2c(c1)S(=O)(=O)C=C2 [HJC-5-89, 3-(3-Chlorophenyl)-2-cyano-N-(1,1-dioxo-1H-1λ^6-benzo[b]thiophen-6-yl)acrylamide] | 234 to 235 | – | – | –
N#C/C(=C\c1ccccn1)C(=O)Nc1ccc2c(c1)S(=O)(=O)C=C2 [HJC-5-90, 2-Cyano-N-(1,1-dioxo-1H-1λ^6-benzo[b]thiophen-6-yl)-3-pyridin-2-yl-acrylamide] | 234 to 235 | – | – | –
N#C/C(=C\c1c(F)cccc1F)C(=O)Nc1ccc2c(c1)S(=O)(=O)C=C2 [HJC-5-91, 2-Cyano-3-(2,6-difluorophenyl)-N-(1,1-dioxo-1H-1λ^6-benzo[b]thiophen-6-yl)acrylamide] | 253 to 254 | – | – | –
N#C/C(=C\c1ccccc1Br)C(=O)Nc1ccc2c(c1)S(=O)(=O)C=C2 [RMF-1-7, 3-(2-Bromophenyl)-2-cyano-N-(1,1-dioxo-1H-1λ^6-benzo[b]thiophen-6-yl)acrylamide] | 226 to 227 | – | – | –
N#C/C(=C\c1ccc(Br)cc1)C(=O)Nc1ccc2c(c1)S(=O)(=O)C=C2 [RMF-1-8, 3-(4-Bromophenyl)-2-cyano-N-(1,1-dioxo-1H-1λ^6-benzo[b]thiophen-6-yl)acrylamide] | 289 to 290 | – | – | –
N#C/C(=C\c1ccccc1O)C(=O)Nc1ccc2c(c1)S(=O)(=O)C=C2 [RMF-1-9, 2-Cyano-N-(1,1-dioxo-1H-1λ^6-benzo[b]thiophen-6-yl)-3-(2-hydroxyphenyl)acrylamide] | 284 to 285 | – | – | –
N#C/C(=C\c1cccc(O)c1)C(=O)Nc1ccc2c(c1)S(=O)(=O)C=C2 [RMF-1-10, 2-Cyano-N-(1,1-dioxo-1H-1λ^6-benzo[b]thiophen-6-yl)-3-(3-hydroxyphenyl)acrylamide] | 262 to 263 | – | – | –
N#C/C(=C\c1ccc(O)cc1)C(=O)Nc1ccc2c(c1)S(=O)(=O)C=C2 [RMF-1-11, 2-Cyano-N-(1,1-dioxo-1H-1λ^6-benzo[b]thiophen-6-yl)-3-(4-hydroxyphenyl)acrylamide] | 306 to 307 | – | – | –
COc1ccccc1/C=C(\C#N)C(=O)Nc1ccc2c(c1)S(=O)(=O)C=C2 [RMF-1-12, 2-Cyano-N-(1,1-dioxo-1H-1λ^6-benzo[b]thiophen-6-yl)-3-(2-methoxyphenyl)acrylamide] | 223 to 224 | – | – | –
COc1ccc(/C=C(\C#N)C(=O)Nc2ccc3c(c2)S(=O)(=O)C=C3)cc1 [RMF-1-13, 2-Cyano-N-(1,1-dioxo-1H-1λ^6-benzo[b]thiophen-6-yl)-3-(4-methoxyphenyl)acrylamide] | 275 to 276 | – | – | –
Cc1cc(C)c(/C=C(\C#N)C(=O)Nc2ccc3c(c2)S(=O)(=O)C=C3)c(C)c1 [RMF-1-14, 2-Cyano-N-(1,1-dioxo-1H-1λ^6-benzo[b]thiophen-6-yl)-3-(2,4,6-trimethylphenyl)acrylamide] | 255 to 256 | – | – | –
N#C/C(=C\c1cccc([N+](=O)[O-])c1)C(=O)Nc1ccc2c(c1)S(=O)(=O)C=C2 [RMF-1-15, 2-Cyano-N-(1,1-dioxo-1H-1λ^6-benzo[b]thiophen-6-yl)-3-(3-nitrophenyl)acrylamide] | 269 to 270 | – | – | –
